ChEMBL document CHEMBL3580597 (J Med Chem, 2015)

Columns and labels:
K562 = assay: cells; type: functional, cell-based; conditions: Homo sapiens, K562, 96 h
[1] = molecular target: T1, Bromodomain-containing protein 4 (Homo sapiens, UniProt O60885); assay: Displacement of FAM-labeled ZBA248 from BRD4 BD2 (333 to 460 amino acid residues) (unknown origin) expressed in Rosetta2 DE3 cells after 30 mins by fluorescence polarization assay
[2] = molecular target: T2, Bromodomain-containing protein 2 (Homo sapiens, UniProt P25440); assay: Displacement of FAM-labeled ZBA248 from BRD2 BD1 (72 to 205 amino acid residues) (unknown origin) expressed in Rosetta2 DE3 cells after 30 mins by fluorescence polarization assay
T2 sequence (P25440 whole entry, the tested form may be a part): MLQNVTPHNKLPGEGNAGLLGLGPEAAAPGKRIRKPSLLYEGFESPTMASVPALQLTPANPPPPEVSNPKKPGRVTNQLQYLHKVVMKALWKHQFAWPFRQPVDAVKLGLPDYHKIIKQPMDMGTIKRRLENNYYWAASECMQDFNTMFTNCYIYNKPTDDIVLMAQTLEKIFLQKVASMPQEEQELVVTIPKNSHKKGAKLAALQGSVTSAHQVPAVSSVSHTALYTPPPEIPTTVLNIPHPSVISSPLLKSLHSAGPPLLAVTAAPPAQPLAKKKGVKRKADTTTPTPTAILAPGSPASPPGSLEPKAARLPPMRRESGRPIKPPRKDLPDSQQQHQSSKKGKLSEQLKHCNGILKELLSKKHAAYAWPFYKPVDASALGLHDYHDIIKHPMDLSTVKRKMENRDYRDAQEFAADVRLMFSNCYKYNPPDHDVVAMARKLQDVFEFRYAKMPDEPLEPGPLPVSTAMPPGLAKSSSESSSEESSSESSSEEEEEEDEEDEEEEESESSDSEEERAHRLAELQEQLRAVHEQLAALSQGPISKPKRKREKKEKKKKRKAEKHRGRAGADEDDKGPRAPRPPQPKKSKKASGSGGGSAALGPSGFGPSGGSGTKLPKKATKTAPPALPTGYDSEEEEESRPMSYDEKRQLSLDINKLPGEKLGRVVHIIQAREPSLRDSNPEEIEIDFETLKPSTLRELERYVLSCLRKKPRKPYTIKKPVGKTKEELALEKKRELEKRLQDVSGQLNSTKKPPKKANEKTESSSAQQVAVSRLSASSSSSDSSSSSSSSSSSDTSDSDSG

[3] = molecular target: T1, Bromodomain-containing protein 4; assay: Displacement of FAM-labeled ZBA248 from BRD4 BD1 (44 to 168 amino acid residues) (unknown origin) expressed in Rosetta2 DE3 cells after 30 mins by fluorescence polarization assay
[4] = molecular target: T2, Bromodomain-containing protein 2; assay: Displacement of FAM-labeled ZBA248 from BRD2 BD2 (349 to 460 amino acid residues) (unknown origin) expressed in Rosetta2 DE3 cells after 30 mins by fluorescence polarization assay
CREB-binding protein = CREB-binding protein (Homo sapiens, UniProt Q92793); assay: Binding affinity to biotinylated CREBBP (1043 to 1159 amino acid residues) (unknown origin) expressed in Rosetta2 DE3 cells by bio-layer interferometry method
Chain of CREB-binding protein (Q92793 whole entry, the tested form may be a part): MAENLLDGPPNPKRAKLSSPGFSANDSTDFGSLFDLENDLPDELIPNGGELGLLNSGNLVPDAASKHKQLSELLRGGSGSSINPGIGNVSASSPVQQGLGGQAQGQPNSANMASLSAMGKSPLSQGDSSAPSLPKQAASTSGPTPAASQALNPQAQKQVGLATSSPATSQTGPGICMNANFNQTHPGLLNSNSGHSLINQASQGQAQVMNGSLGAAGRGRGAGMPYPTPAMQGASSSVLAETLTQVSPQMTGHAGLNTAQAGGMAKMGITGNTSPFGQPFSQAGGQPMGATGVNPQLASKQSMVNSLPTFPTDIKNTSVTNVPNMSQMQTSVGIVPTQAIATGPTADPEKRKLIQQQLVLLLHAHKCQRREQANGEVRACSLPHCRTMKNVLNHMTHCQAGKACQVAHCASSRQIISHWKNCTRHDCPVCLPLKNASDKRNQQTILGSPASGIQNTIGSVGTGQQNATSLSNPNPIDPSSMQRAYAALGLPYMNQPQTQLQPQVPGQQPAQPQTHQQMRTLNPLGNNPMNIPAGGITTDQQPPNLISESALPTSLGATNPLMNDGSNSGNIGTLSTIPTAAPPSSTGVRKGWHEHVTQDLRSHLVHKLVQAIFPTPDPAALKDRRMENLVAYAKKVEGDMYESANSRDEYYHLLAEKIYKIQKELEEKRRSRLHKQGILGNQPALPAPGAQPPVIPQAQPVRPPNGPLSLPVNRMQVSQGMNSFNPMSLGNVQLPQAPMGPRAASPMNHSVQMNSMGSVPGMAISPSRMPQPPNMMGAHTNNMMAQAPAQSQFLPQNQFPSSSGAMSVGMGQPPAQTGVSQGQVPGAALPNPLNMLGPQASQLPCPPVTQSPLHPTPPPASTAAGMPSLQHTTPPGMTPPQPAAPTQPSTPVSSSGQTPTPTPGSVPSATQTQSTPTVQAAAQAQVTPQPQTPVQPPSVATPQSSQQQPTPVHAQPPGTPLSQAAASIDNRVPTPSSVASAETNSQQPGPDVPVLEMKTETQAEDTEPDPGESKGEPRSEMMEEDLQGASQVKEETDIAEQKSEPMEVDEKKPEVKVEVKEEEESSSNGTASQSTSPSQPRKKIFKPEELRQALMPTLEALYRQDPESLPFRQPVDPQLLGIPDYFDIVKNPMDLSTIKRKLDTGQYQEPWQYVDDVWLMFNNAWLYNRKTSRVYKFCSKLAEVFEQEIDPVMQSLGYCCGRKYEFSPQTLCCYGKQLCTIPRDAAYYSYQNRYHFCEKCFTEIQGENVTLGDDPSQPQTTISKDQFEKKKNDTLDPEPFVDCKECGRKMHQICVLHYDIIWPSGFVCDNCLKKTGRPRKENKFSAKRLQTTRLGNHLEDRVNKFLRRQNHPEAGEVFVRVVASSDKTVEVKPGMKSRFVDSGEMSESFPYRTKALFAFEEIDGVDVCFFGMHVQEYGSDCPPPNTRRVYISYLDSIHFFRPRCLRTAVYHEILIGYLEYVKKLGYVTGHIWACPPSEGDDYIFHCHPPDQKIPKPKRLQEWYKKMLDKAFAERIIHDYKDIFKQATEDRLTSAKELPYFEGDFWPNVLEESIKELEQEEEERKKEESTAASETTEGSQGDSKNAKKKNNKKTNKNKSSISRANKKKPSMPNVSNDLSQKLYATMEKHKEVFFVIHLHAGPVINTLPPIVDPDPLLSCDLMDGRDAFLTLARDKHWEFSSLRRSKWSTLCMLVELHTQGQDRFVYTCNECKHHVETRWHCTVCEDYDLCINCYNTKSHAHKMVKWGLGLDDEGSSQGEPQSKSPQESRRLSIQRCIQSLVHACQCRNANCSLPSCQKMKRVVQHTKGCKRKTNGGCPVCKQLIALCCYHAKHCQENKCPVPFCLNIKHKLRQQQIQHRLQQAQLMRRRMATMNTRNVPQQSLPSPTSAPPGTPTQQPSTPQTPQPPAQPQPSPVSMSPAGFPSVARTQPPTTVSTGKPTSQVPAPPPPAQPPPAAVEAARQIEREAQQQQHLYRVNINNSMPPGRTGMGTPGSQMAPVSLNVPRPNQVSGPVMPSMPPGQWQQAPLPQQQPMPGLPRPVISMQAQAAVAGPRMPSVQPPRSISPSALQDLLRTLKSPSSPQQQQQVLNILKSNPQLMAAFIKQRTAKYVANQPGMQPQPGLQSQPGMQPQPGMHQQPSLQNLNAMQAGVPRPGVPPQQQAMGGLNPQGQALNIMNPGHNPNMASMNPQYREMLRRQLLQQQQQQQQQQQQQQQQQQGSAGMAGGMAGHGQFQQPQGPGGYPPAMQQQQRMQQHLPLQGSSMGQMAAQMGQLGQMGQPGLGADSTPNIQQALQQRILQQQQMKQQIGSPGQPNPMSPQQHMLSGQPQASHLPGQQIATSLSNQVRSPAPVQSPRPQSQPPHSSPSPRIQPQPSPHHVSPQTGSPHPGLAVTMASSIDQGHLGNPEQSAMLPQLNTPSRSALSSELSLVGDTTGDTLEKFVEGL

[5] = molecular target: T3, ATPase family AAA domain-containing protein 2 (Homo sapiens, UniProt Q6PL18); assay: Binding affinity to biotinylated ATAD2A (981 to 1108 amino acid residues) (unknown origin) expressed in Rosetta2 DE3 cells by bio-layer interferometry method
T3 sequence (Q6PL18 whole entry): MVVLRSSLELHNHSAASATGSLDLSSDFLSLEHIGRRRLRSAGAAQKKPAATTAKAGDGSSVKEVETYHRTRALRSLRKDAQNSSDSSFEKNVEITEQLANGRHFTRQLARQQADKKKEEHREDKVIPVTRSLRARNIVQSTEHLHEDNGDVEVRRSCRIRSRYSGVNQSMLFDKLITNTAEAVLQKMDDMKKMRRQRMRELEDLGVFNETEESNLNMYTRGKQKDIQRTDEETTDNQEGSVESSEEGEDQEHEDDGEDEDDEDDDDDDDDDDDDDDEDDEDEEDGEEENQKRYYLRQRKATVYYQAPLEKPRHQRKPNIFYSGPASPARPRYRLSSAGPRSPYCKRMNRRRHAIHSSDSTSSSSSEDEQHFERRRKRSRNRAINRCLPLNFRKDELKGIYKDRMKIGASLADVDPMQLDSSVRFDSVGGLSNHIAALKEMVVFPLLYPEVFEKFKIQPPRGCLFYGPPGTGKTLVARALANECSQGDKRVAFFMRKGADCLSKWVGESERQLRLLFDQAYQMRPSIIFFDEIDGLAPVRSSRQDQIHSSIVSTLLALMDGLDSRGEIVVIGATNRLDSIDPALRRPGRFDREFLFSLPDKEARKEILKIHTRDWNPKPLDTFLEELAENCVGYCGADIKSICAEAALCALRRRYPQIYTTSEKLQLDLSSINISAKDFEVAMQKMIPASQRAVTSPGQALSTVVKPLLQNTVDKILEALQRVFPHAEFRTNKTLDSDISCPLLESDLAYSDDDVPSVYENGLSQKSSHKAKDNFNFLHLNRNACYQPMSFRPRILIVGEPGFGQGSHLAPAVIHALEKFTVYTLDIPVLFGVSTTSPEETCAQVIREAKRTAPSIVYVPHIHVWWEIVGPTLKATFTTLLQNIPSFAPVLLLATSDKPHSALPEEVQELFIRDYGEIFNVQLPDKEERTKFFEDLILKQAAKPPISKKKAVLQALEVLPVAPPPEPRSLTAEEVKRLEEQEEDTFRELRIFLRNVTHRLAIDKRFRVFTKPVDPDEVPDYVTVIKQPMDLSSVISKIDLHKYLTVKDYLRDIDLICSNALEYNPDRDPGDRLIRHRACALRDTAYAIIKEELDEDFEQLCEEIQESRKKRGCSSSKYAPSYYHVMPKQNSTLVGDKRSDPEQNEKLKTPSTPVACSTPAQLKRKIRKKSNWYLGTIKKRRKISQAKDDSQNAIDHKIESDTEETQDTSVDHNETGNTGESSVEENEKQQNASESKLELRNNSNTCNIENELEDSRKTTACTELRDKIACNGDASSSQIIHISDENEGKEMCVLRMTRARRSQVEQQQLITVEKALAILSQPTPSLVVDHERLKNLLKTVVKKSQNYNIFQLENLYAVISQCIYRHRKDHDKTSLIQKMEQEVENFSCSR

[6] = molecular target: T4, Bromodomain-containing protein 3 (Homo sapiens, UniProt Q15059); assay: Displacement of FAM-labeled ZBA248 from BRD3 BD2 (306 to 417 amino acid residues) (unknown origin) expressed in Rosetta2 DE3 cells after 30 mins by fluorescence polarization assay
T4 sequence (Q15059 whole entry, the tested form may be a part): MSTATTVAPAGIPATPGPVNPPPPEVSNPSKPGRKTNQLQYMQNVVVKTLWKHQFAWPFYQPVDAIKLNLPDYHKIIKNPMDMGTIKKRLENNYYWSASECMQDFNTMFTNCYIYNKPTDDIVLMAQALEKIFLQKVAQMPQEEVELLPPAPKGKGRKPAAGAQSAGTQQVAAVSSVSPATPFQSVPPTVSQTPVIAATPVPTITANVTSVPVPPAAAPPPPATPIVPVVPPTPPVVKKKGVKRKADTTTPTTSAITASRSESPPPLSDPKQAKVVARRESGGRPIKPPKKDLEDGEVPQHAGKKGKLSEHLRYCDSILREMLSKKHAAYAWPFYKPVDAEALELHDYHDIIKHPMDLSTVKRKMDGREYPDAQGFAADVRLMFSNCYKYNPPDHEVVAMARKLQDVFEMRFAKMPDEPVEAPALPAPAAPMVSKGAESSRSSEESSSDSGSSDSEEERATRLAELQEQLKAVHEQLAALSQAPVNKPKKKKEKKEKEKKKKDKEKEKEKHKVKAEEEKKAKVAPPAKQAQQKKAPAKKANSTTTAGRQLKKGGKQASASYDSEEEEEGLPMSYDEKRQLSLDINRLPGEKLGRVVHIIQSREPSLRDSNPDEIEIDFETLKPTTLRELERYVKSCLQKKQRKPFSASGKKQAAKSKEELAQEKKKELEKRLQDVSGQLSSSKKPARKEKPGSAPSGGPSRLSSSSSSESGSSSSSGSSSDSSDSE

[7] = molecular target: T4, Bromodomain-containing protein 3; assay: Displacement of FAM-labeled ZBA248 from BRD3 BD1 (24 to 144 amino acid residues) (unknown origin) expressed in Rosetta2 DE3 cells after 30 mins by fluorescence polarization assay
[8] = molecular target: T4, Bromodomain-containing protein 3; assay: Binding affinity to biotinylated BRD3 BD2 (306 to 417 amino acid residues) (unknown origin) expressed in Rosetta2 DE3 cells by bio-layer interferometry method
MV4-11 = assay: cells; type: functional, cell-based; conditions: Homo sapiens, MV4-11, 96 h
[9] = molecular target: T4, Bromodomain-containing protein 3; assay: biochemical; type: cell-based

Structure (SMILES) | IC50 [1] | Ki [1] | IC50 [3] | Ki [3] | other results
CCc1n[nH]c(CC)c1-c1nccc2[nH]c3cc(-c4c(C)noc4C)c(OC)cc3c12 | 61.9 nM | 16.1 nM | 131 nM | 44.1 nM | IC50 (K562): > 2000 nM; Ki [2]: 21 nM; Ki [4]: 15.4 nM
CCc1noc(CC)c1-c1cc2[nH]c3ccnc(Cl)c3c2cc1OC | 74000 nM | 8320 nM | > 10000 nM | > 10000 nM | 
CCNC(=O)C[C@@H]1N=C(c2ccc(Cl)cc2)c2cc(OC)ccc2-n2c(C)nnc21 [MOLIBRESIB] |  |  |  |  | Kd (CREB-binding protein): > 10000 nM; Kd [5]: > 10000 nM
CCc1noc(C)c1-c1cc2[nH]c3ccnc(Cl)c3c2cc1OC | 1820 nM | 478 nM | 3870 nM | 1240 nM | 
COc1cc2c(cc1-c1c(C)noc1C)[nH]c1ccnc(-c3c(C)nn(-c4ccccc4)c3C)c12 | 316 nM | 98.1 nM | 301 nM | 103 nM | 
COc1cc2c(cc1-c1c(C)noc1C)[nH]c1ccncc12 | 2690 nM |  | 4590 nM |  | 
CCc1onc(C)c1-c1cc2[nH]c3ccnc(Cl)c3c2cc1OC | 13800 nM | 2180 nM | 9440 nM | 2810 nM | 
COc1cc2c(cc1-c1c(C)noc1C)[nH]c1ccnc(Cl)c12 | 579 nM |  | 862 nM |  | 
COc1cc2c(cc1-c1c(C)noc1C)ncc1[nH]c(=O)n([C@H](C)c3ccccn3)c12 |  |  |  |  | IC50 (K562): > 2000 nM; Kd (CREB-binding protein): 3080 nM; Kd [5]: > 10000 nM; Ki [6]: 22.3 nM; Ki [7]: 7.2 nM; Kd [8]: 40.5 nM; IC50 (MV4-11): 162 nM; Kd [9]: 29.8 nM
COc1cc2c(cc1-c1c(C)noc1C)[nH]c1ccnc(-c3c(C)noc3C)c12 | 221 nM | 70.1 nM | 134 nM | 47.8 nM | 
COc1cc2c(cc1-c1c(C)n[nH]c1C)[nH]c1ccnc(Cl)c12 | 2580 nM | 867 nM | 4870 nM | 1730 nM | 
Cc1sc2c(c1C)C(c1ccc(Cl)cc1)=N[C@@H](CC(=O)OC(C)(C)C)c1nnc(C)n1-2 |  |  |  |  | IC50 (K562): > 2000 nM
COc1cc2c(cc1-c1c(C)noc1C)[nH]c1ccnc(-c3c(C)n[nH]c3C)c12 | 324 nM |  | 276 nM |  | 
COc1cc2c(cc1-c1c(C)nn(C)c1C)[nH]c1ccnc(Cl)c12 | 6170 nM | 1950 nM | 14000 nM | 4840 nM | 
COc1cc2c(cc1-c1c(C)noc1C)[nH]c1ccnc(-c3cn[nH]c3)c12 | 658 nM |  | 702 nM |  | 
